In US12202829B2, “Heterocyclic compound” (FIMECS, Inc., priority 2018, dated 2025):
Where a name gives a salt, the structure may show the parent alone.

Biological target: T1, human XIAP_BIR3 domain purified protein (Homo sapiens, UniProt P98170)
T1 construct: purchased R & D
Assay: XIAP binding inhibitory activity, HTRF method with b-Smac ligand
Settings: for IC50: second symbol of the cell, read-out: XIAP binding 50% inhibitory concentration (IC50 value); for inhibition at 3 µM: test compound 3 μM, first symbol of the cell, read-out: XIAP binding inhibition rate when the concentration of the test compound is 3 μM
Description: Human XIAP binding inhibitory activity were measured by the Homogeneous Time Resolved Fluorescence (HTRF) method with using commercially available human XIAP_BIR3 domain purified protein (R & D) and as a ligand a Smac N-terminal peptide (AVPIAQK (SEQ ID NO: 1)) (hereinafter referred to as “b-Smac”; Peptide Research Laboratories, Inc.) biotinylated at the C-terminus according to a conventional method.
The HTRF method will be described in detail below. A test compound diluted with a reaction buffer was added to a 384-well white shallow bottom plate (Greiner 784076) at 1 μL/well and flash centrifuged for 30 seconds. Subsequently, human XIAP_BIR3 domain purified protein was diluted with the reaction buffer (25 mM HEPES Buffer containing 100 mM NaCl, 0.1% BSA, and 0.1% triton X-100, pH 7.5) to obtain a 90 nM sample diluent, and the resultant sample diluent was added to the above-mentioned white superficial plate at 4.5 μL/well and flash centrifuged for 30 seconds. Subsequently, b-Smac diluted to 90 nM with the reaction buffer was added to the above-mentioned white superficial plat at 4.5 μL/well and flash centrifuged for 30 seconds. A mixed solution of Anti-6 HIS-Cryptate (Eu3+Cryptate-conjugated mouse monoclonal antibody anti-6 Histidine; cisbio) and Streptavidin-XL^ent! (Highgrade XL665-conjugated streptavidin; cisbio) both diluted 100-fold with HTRF detection buffer (cisbio) at a volume ratio of 1:1 was added to the above white superficial plate at 10 μL/well. After flash centrifuging the white shallow bottom plate for 30 seconds, the white shallow bottom plate was left at room temperature for 4 hours or more in the dark. The white superficial plate after being left was subjected to fluorescence intensity measurement (excitation wavelength: 320 nm, fluorescence wavelength: 665 nm and 615 nm) by EnVision (Perkin Elmer).
The binding inhibition rate (%) was calculated based on the HTRF ratio in the presence of the test compound to the HTRF ratio in the absence of the test compound (fluorescence intensity at 665 nm/fluorescence intensity at 615 nm).

T1 sequence (P98170 252-356 limits assumed): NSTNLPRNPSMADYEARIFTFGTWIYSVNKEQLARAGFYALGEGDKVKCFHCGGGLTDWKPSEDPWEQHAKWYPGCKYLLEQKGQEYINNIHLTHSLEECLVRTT

| IC50 | inhibition at 3 µM | Structure (SMILES) |
| --- | --- | --- |
| 3 to 30 µM | – | CN[C@@H](C)C(=O)N[C@@H](C(=O)N1CCN(C(=O)c2cc3cc(F)c(F)cc3n2CCOCCOCc2ccccc2)CC1)C1CCCCC1 [Example 46, (S)—N—((R)-2-(4-(1-(2-(2-(Benzyloxy)ethoxy)ethyl)-5,6-difluoro-1H-indole-2-carbonyl)piperazin-1-yl)-1-cyclohexyl-2-oxoethyl)-2-(methylamino)propanamide Hydrochloride] |
| 3 to 30 µM | – | CN[C@@H](C)C(=O)N[C@H](C(=O)N1CCN(C(=O)c2cc3cc(F)c(F)cc3n2CCOCCOCCO)CC1)C1CCCCC1 [Example 47, (S)—N—((S)-1-Cyclohexyl-2-(4-(5,6-difluoro-1-(2-(2-(2-hydroxyethoxy)ethoxy)ethyl)-1H-indole-2-carbonyl)piperazin-1-yl)-2-oxoethyl)-2-(methylamino)propanamide] |
| 3 to 30 µM | – | CN[C@@H](C)C(=O)N[C@H](C(=O)N1CCN(C(=O)c2cc3cc(F)c(F)cc3n2CCOCCOCCOCCO)CC1)C1CCCCC1 [Example 48, (S)—N—((S)-1-Cyclohexyl-2-(4-(5,6-difluoro-1-(2-(2-(2-(2-hydroxyethoxy)ethoxy)ethoxy)ethyl)-1H-indole-2-carbonyl)piperazin-1-yl)-2-oxoethyl)-2-(methylamino)propanamide] |
| 3 to 30 µM | – | CN[C@@H](C)C(=O)N[C@H](C(=O)N1CCN(C(=O)c2c(OCCOCCOCc3ccccc3)c3cc(F)c(F)cc3n2C)CC1)C1CCCCC1 [Example 49, (S)—N—((S)-2-(4-(3-(2-(2-(Benzyloxy)ethoxy)ethoxy)-5,6-difluoro-1-methyl-1H-indole-2-carbonyl)piperazin-1-yl)-1-cyclohexyl-2-oxoethyl)-2-(methylamino)propanamide] |
| 3 to 30 µM | – | CN[C@@H](C)C(=O)N[C@H](C(=O)N1CCN(C(=O)c2c(OCCOCCO)c3cc(F)c(F)cc3n2C)CC1)C1CCCCC1 [Example 50, (S)—N—((S)-1-Cyclohexyl-2-(4-(5,6-difluoro-3-(2-(2-hydroxyethoxy)ethoxy)-1-methyl-1H-indole-2-carbonyl)piperazin-1-yl)-2-oxoethyl)-2-(methylamino)propanamide] |
| 3 to 30 µM | – | CN[C@@H](C)C(=O)N[C@H](C(=O)N1CCN(C(=O)c2c(C)c3ccccc3n2CCOC)CC1)C1CCCCC1 [Example 51, (S)—N—((S)-1-Cyclohexyl-2-(4-(1-(2-methoxyethyl)-3-methyl-1H-indole-2-carbonyl)piperazin-1-yl)-2-oxoethyl)-2-(methylamino)propanamide] |
| 3 to 30 µM | – | CN[C@@H](C)C(=O)N[C@H](C(=O)N1CCN(C(=O)c2cc3cc(F)ccc3n2CCOC)CC1)C1CCCCC1 [Example 52, (S)—N—((S)-1-Cyclohexyl-2-(4-(5-fluoro-1-(2-methoxyethyl)-1H-indole-2-carbonyl)piperazin-1-yl)-2-oxoethyl)-2-(methylamino)propanamide] |
| 3 to 30 µM | – | CN[C@@H](C)C(=O)N[C@H](C(=O)N1CCN(C(=O)c2cc3ccc(F)cc3n2CCOC)CC1)C1CCCCC1 [Example 53, (S)—N—((S)-1-cyclohexyl-2-(4-(6-fluoro-1-(2-methoxyethyl)-1H-indole-2-carbonyl)piperazin-1-yl)-2-oxoethyl)-2-(methylamino)propanamide] |
| 3 to 30 µM | – | CN[C@@H](C)C(=O)N[C@H](C(=O)N1CCN(C(=O)c2cc3cc(F)c(F)cc3n2CCOC)CC1)C1CCCCC1 [Example 54, (S)—N—((S)-1-Cyclohexyl-2-(4-(5,6-difluoro-1-(2-methoxyethyl)-1H-indole-2-carbonyl)piperazin-1-yl)-2-oxoethyl)-2-(methylamino)propanamide] |
| 3 to 30 µM | – | CN[C@@H](C)C(=O)N[C@H](C(=O)N1CCN(C(=O)c2cc3cc(F)c(F)cc3n2C)C[C@H]1C)C1CCCCC1 [Example 56, (S)—N—((S)-1-Cyclohexyl-2-((R)-4-(5,6-difluoro-1-methyl-1H-indole-2-carbonyl)-2-methylpiperazin-1-yl)-2-oxoethyl)-2-(methylamino)propanamide Trifluoroacetate] |
| 0.3 to 3 µM | – | CN[C@@H](C)C(=O)N[C@H](C(=O)N1CCN(C(=O)c2cc3cc(F)c(OC)cc3n2C)C[C@H]1C)C1CCCCC1 [Example 57, (S)—N—[(S)-1-Cyclohexyl-2-[(R)-4-[(5-fluoro-6-methoxy-1-methyl-1H-indole-2carbonyl]-2-methylpiperazin-1-yl]-2-oxoethyl]-2-(methylamino)propanamide trifluoroacetate] |
| 0.3 to 3 µM | – | CN[C@@H](C)C(=O)N[C@H](C(=O)N1CCN(C(=O)c2cc3cc(F)ccc3n2C)C[C@H]1C)C1CCCCC1 [Example 58, (S)—N—((S)-1-Cyclohexyl-2-((R)-4-(5-fluoro-1-methyl-1H-indole-2-carbonyl)-2-methylpiperazin-1-yl)-2-oxoethyl)-2-(methylamino)propanamide Trifluoroacetate] |
| 3 to 30 µM | – | CN[C@@H](C)C(=O)N[C@H](C(=O)N1C[C@H]2CC[C@@H]1CN2C(=O)c1cc2cc(F)c(F)cc2n1C)C1CCCCC1 [Example 59, (2S)-N-((1S)-1-cyclohexyl-2-(5-((5,6-difluoro-1-methyl-1H-indol-2-yl)carbonyl)-2,5-diazabicyclo[2.2.2]octan-2-yl)-2-oxoethyl)-2-(methylamino)propanamide] |
| – | > 75% | CN[C@@H](C)C(=O)N[C@H](C(=O)N1CCN(C(=O)c2c(C(=O)NCCOCCOCCN=[N+]=[N-])c3ccc(OC)cc3n2C)CC1)C1CCCCC1 [Example 61, N-(2-(2-(2-Azidoethoxy)ethoxy)ethyl)-2-(4-((S)-2-cyclohexyl-2-((S)-2-(methylamino)propanamido)acetyl)piperazine-1-carbonyl)-6-methoxy-1-methyl-1H-indole-3-carboxamide] |
| – | 25 to 50% | CN[C@@H](C)C(=O)N[C@H](C(=O)N1CCN(C(=O)c2c(OCCOCCOCCOCCO)c3cc(F)c(F)cc3n2C)CC1)C1CCCCC1 [Example 63, (S)-N-((S)-1-cyclohexyl-2-(4-(5,6-difluoro-3-(2-(2-(2-(2-hydroxyethoxy)ethoxy)ethoxy)ethoxy)-1-methyl-1H-indole-2-carbonyl)piperazin-1-yl)-2-oxoethyl)-2-(methylamino)propanamide] |
| 3 to 30 µM | – | C[C@@H]1CN(CC(=O)N2CCN(C(=O)c3cc4cc(F)c(F)cc4n3C)C[C@H]2C)[C@@H](COCCOCCOCCO)CN1 [Example 64, 1-((R)-4-(5,6-Difluoro-1-methyl-1H-indole-2-carbonyl)-2-methylpiperazin-1-yl)-2-((2R,5R)-2-(2-(2-(2-hydroxyethoxy)ethoxy)ethoxymethyl)-5-methylpiperazin-1-yl)ethan-1-one] |
| 3 to 30 µM | – | C[C@@H]1CN(CC(=O)N2CCN(C(=O)c3cc4cc(F)c(F)cc4n3C)C[C@H]2C)[C@@H](COCCOCCOCCOCCO)CN1 [Example 65, 1-((R)-4-(5,6-Difluoro-1-methyl-1H-indole-2-carbonyl)-2-methylpiperazin-1-yl)-2-((2R,5R)-2-(13-hydroxy-2,5,8,11-tetraoxatridecyl)-5-methylpiperazin-1-yl)ethan-1-one] |
| 3 to 30 µM | – | CN[C@@H](C)C(=O)N[C@H](C(=O)N1CCN(C(=O)c2cc3c(OCCOCCOCCOCc4ccccc4)c(F)c(F)cc3n2C)CC1)C1CCCCC1 [Example 66, (S)—N—((S)-2-(4-(4-(2-(2-(2-(Benzyloxy)ethoxy)ethoxy)ethoxy)-5,6-difluoro-1-methyl-1H-indole-2-carbonyl)piperazin-1-yl)-1-cyclohexyl-2-oxoethyl)-2-(methylamino)propanamide] |
| 0.3 to 3 µM | – | CN[C@@H](C)C(=O)N[C@H](C(=O)N1CCN(C(=O)c2cc3c(OCCOCCOCCO)c(F)c(F)cc3n2C)CC1)C1CCCCC1 [Example 67, (S)—N—((S)-1-Cyclohexyl-2-(4-(5,6-difluoro-4-(2-(2-(2-hydroxyethoxy)ethoxy)ethoxy)-1-methyl-1H-indole-2-carbonyl)piperazin-1-yl)-2-oxoethyl)-2-(methylamino)propanamide] |
| 0.3 to 3 µM | – | CN[C@@H](C)C(=O)N[C@H](C(=O)N1CCN(C(=O)c2cc3c(OCCOCCOCCOCCO)c(F)c(F)cc3n2C)CC1)C1CCCCC1 [Example 68, (S)—N—((S)-1-Cyclohexyl-2-(4-(5,6-difluoro-4-(2-(2-(2-(2-hydroxyethoxy)ethoxy)ethoxy)ethoxy)-1-methyl-1H-indole-2-carbonyl)piperazin-1-yl)-2-oxoethyl)-2-(methylamino)propanamide] |

| Structure (SMILES) | IC50 | inhibition at 3 µM |
| --- | --- | --- |
| CN[C@@H](C)C(=O)N[C@H](C(=O)N1C2CC1CN(C(=O)c1cc3cc(F)c(F)cc3n1C)C2)C1CCCCC1 [Example 60, (2S)-N-((1S)-1-cyclohexyl-2-(3-((5,6-difluoro-1-methyl-1H-indol-2-yl)carbonyl)-3,6-diazabicyclo[3.1.1]heptan-6-yl)-2-oxoethyl)-2 (methylamino)propanamide] | 3 to 30 µM | – |
